{"source": "patent US8222008B2", "about": "“Methods and compositions for treating cancer” (The Administrators of The Tulane Educational Fund, priority 2003, dated 2012)", "system": "renal proximal tubule epithelial (RPTE) cells", "assay": "Time course of apoptosis, TUNEL (FIG. 3)", "assay_type": "cell-based, human", "method": "FIG. 3 is a graph showing the effect of CDME on apoptosis in renal proximal tubule epithelial (RPTE) cells. Semi-confluent RPTE cells were treated with either 0.25 mM CDME or TNF-a, harvested at 0.5, 1, 3, and 6 hours, stained with TUNEL, and enumerated by fluorescence microscopy. Each experiment was done in triplicate. The control (time 0) cystine content was 0.6 nmol/mg protein. After 1 hour incubation, the cystine content was 2.2 nmol/mg protein.\n2. TUNEL Assay • The TUNEL assay employs terminal deoxynucleotidyl transferase (TdT) to label the ends of double stranded DNA breaks, which occur in apoptotic cells, with FITC-conjugated dUTP. Cells were fixed in 4% buffered formalin, washed, incubated in permeabilization solution (0.1% Triton X-100 in 0.1% Na Citrate) for 2 minutes on ice and then stained with 25 μL of TdT/45 μL of labeled dNTP mix for 40 minutes at 37° C. The cells were visually enumerated by fluorescence microscopy, scoring a minimum of five fields (250 to 300 cells) for fluorescence in triplicate followed by counting all cells in the same field by light microscopy, with a minimum of 750 cells scored per condition. The apoptosis rate is the total number of cells that fluoresce divided by the total cells in the field. […]", "data": [{"smiles": "COC(=O)[C@@H](N)CSSC[C@H](N)C(=O)OC", "note": "[CDME, cystine dimethyl ester]", "values": [{"measurement": "rate of apoptosis compared with TNF-a alone", "setting": "0.25 mM CDME alone", "value": "equal to that induced by exposure to TNF-a alone"}, {"measurement": "time to maximum rate of apoptosis", "setting": "CDME, followed by lysis and release from the dish", "value": "≤ 6", "unit": "h"}]}]}
